Assay results as given in ChEMBL document CHEMBL4825755 (J Med Chem, 2021).

How the values were obtained:
[1] = target: PI3-kinase p110-delta/p85-alpha (Homo sapiens, UniProt O00329); experiment: Inhibition of recombinant human N-terminal His6-tagged full length P110delta/full length untagged human p85alpha expressed in baculovirus infected Sf21 insect cells using PIP2 as substrate preincubated for 15 mins followed by substrate addition and measured after 60 mins by HTRF assay
[2] = target: PI3-kinase p110-alpha/p85-alpha (Homo sapiens, UniProt P42336); experiment: Inhibition of recombinant human N-terminal His6-tagged full length P110alpha/full length untagged human p85alpha expressed in baculovirus infected Sf21 insect cells using PIP2 as substrate preincubated for 15 mins followed by substrate addition and measured after 60 mins by HTRF assay
PI3-kinase p110-alpha/p85-alpha, sequence (P27986 whole entry): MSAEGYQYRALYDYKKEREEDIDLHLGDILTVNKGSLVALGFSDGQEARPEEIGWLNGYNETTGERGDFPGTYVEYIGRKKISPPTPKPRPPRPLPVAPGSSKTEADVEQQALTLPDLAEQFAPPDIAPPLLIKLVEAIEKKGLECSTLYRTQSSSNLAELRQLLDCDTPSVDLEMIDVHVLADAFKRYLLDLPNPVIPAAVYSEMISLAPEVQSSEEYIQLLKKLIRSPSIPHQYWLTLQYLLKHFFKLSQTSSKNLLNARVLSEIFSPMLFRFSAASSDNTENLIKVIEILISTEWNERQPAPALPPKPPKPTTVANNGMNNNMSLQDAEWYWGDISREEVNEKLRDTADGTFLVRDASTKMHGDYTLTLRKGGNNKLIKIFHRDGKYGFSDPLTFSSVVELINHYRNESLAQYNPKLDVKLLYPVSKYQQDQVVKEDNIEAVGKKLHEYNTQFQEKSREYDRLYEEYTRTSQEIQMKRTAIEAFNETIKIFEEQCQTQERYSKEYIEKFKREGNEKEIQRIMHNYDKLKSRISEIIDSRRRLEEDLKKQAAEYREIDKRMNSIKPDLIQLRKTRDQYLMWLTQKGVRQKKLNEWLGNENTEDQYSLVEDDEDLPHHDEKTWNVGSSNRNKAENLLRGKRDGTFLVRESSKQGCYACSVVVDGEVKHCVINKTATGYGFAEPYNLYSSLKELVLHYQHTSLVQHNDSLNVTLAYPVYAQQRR
PI3-kinase p110-alpha/p85-alpha, sequence (P42336 whole entry): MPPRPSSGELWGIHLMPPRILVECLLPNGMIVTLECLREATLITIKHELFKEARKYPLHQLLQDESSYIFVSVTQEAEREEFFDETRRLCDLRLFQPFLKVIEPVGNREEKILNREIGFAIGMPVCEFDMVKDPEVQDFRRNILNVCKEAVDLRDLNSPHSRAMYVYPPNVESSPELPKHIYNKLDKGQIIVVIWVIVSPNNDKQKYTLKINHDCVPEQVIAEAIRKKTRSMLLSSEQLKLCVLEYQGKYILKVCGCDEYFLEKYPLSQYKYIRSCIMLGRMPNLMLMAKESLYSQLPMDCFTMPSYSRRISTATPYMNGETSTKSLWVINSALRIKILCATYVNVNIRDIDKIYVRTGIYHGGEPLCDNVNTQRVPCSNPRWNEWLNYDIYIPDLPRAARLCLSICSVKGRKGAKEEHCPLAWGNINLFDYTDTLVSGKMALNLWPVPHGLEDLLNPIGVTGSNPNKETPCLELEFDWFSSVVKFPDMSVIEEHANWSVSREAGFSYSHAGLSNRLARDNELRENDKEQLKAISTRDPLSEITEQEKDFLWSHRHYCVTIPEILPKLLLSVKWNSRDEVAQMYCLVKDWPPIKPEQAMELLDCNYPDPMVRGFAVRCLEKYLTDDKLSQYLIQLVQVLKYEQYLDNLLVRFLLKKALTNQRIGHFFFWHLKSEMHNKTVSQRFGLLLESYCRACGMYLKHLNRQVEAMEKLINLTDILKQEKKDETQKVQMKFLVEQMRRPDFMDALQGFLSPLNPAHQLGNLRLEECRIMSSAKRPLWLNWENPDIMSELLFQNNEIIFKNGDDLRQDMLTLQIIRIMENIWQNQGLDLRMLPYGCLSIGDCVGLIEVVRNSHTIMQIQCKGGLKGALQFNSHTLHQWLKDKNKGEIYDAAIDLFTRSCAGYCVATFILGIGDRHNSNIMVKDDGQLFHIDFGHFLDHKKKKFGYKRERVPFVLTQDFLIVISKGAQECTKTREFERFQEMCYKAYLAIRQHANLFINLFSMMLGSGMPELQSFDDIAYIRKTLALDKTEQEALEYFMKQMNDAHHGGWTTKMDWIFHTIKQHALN

PI3K p110 beta/p85 alpha = PI3K p110 beta/p85 alpha (Homo sapiens, UniProt P42338); experiment: Inhibition of recombinant human N-terminal His6-tagged full length P110beta/full length untagged human p85alpha expressed in baculovirus infected Sf21 insect cells using PIP2 as substrate preincubated for 15 mins followed by substrate addition and measured after 60 mins by HTRF assay
PI3K p110 beta/p85 alpha, sequence (P27986 whole entry, canonical isoform): as the sequence (P27986 whole entry) above
PI3K p110 beta/p85 alpha, sequence (P42338 whole entry, canonical isoform): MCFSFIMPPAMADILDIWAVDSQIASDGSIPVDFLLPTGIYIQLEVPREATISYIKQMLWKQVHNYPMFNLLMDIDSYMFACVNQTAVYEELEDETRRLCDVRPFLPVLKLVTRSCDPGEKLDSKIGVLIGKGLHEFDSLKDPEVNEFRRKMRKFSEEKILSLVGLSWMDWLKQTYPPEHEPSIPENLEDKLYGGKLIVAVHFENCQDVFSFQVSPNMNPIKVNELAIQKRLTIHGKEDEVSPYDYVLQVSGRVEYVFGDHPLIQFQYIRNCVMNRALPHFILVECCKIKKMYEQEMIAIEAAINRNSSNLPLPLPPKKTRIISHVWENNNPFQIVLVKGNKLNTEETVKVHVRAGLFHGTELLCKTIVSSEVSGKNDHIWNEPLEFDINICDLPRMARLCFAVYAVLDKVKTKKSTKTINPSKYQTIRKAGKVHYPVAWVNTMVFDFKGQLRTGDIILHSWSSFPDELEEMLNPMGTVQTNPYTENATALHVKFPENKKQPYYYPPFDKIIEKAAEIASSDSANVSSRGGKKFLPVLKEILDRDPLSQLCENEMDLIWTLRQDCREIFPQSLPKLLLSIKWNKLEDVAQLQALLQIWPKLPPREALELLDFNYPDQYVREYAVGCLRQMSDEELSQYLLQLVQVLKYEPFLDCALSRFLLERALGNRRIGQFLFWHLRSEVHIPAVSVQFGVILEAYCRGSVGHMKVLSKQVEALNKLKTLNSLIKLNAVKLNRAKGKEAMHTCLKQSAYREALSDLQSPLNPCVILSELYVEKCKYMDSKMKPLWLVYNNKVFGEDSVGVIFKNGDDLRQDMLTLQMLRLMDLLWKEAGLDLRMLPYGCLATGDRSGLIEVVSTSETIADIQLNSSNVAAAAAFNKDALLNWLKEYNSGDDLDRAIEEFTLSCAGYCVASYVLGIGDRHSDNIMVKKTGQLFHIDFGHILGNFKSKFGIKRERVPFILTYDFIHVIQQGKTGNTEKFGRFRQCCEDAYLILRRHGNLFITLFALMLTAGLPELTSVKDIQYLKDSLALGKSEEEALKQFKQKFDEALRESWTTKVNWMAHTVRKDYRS

[3] = target: Phosphatidylinositol 4,5-bisphosphate 3-kinase catalytic subunit gamma isoform (Homo sapiens, UniProt P48736); experiment: Inhibition of recombinant human N-terminal His6-tagged full length P120gamma expressed in baculovirus infected Sf21 insect cells using PIP2 as substrate preincubated for 15 mins followed by substrate addition and measured after 60 mins by HTRF assay
Phosphatidylinositol 4,5-bisphosphate 3-kinase catalytic subunit gamma isoform, sequence (P48736 whole entry, canonical isoform): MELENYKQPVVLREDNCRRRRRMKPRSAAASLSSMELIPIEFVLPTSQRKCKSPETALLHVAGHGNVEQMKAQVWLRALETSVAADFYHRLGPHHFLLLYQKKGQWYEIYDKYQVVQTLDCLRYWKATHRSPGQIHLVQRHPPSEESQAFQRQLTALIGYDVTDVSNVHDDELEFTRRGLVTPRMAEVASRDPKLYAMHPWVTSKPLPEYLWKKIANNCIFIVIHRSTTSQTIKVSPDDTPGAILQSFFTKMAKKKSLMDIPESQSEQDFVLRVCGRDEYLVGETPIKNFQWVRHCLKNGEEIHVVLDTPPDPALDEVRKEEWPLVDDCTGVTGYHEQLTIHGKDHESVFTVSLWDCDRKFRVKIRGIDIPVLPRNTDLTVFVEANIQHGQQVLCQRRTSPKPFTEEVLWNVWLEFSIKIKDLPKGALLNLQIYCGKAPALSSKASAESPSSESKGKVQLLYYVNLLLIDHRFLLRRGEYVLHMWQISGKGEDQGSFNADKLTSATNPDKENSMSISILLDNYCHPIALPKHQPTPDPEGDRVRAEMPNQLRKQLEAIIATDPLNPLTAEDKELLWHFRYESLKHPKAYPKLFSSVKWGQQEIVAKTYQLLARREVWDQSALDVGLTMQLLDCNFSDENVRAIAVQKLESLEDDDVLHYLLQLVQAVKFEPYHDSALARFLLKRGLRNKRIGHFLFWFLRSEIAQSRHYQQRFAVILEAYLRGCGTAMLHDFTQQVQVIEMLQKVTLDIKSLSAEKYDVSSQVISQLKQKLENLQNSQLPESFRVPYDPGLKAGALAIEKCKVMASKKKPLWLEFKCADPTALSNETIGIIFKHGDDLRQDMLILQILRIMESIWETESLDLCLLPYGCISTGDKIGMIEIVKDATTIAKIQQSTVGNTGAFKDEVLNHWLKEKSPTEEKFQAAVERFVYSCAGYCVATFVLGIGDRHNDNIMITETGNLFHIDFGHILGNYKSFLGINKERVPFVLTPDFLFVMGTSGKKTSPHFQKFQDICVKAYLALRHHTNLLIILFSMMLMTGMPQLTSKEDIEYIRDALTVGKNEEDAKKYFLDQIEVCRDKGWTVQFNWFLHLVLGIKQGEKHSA

[4] = target: T1, Phosphatidylinositol 4,5-bisphosphate 3-kinase catalytic subunit delta isoform (Homo sapiens, UniProt O00329); experiment: Inhibition of PI3Kdelta in human whole blood assessed as reduction in cytostim-stimulated IFNgamma production preincubated for 1 hr followed by cytostim stimulation and measured after 20 hrs by electrochemiluminescence assay
T1 sequence (O00329 whole entry): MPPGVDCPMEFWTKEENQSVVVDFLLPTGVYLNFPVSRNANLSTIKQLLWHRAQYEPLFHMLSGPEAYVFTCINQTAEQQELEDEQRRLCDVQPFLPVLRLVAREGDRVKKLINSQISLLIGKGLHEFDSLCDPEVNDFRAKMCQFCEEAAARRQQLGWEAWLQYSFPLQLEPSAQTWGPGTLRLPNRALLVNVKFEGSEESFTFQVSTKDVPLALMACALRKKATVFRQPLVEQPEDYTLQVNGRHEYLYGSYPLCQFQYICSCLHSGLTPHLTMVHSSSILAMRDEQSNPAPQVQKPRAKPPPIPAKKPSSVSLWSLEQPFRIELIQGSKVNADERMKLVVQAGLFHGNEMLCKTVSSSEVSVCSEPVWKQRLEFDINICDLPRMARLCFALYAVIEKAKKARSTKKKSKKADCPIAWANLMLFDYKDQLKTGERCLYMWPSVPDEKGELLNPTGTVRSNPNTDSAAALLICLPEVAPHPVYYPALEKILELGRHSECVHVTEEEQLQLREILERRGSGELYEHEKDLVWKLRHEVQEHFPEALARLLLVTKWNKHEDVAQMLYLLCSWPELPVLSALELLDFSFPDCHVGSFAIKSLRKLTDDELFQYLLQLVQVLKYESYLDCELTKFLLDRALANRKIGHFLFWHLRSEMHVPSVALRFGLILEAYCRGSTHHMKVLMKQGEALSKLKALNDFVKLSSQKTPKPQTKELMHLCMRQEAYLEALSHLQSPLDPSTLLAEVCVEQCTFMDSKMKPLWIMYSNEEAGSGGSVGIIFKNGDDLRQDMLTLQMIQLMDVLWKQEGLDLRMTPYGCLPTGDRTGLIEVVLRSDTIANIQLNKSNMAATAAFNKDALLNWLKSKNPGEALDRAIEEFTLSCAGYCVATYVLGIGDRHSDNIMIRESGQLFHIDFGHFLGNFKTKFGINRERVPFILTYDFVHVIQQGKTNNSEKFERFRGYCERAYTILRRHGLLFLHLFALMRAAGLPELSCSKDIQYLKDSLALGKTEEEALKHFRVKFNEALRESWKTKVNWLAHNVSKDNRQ

[5] = Lipophilicity, log D of compound by chromatographic method; assay type: physicochemical
[6] = Intrinsic clearance in Wistar Han rat liver microsomes at 0.5 uM measured up to 45 mins in presence of NADPH by LC-MS/MS analysis; assay type: ADME, Microsome; conditions: read-out: CLH
in vitro = conditions: human, pooled liver microsomes
Description: Intrinsic clearance in pooled human liver microsomes at 0.5 uM measured up to 45 mins in presence of NADPH by LC-MS/MS analysis

PI3-kinase p110-delta/p85-alpha, sequence (P27986 whole entry, one chain of several): as the sequence (P27986 whole entry) above

| SMILES | IC50 [1] [nM] | IC50 [2] [nM] | IC50 (PI3K p110 beta/p85 alpha) [nM] | IC50 [3] [nM] | IC50 [4] [nM] | chromatographic logD [5] | CLint scaled at 0.5 µM [6] [mL/min/kg] | CLint scaled at 0.75 h, 0.5 µM (in vitro) [mL/min/kg] | Ki [1] [nM] | pIC50 ([3]; sf21) |
| --- | --- | --- | --- | --- | --- | --- | --- | --- | --- | --- |
| COc1ncc(C2=CCOCC2)cc1S(=O)(=O)Nc1cncc(-c2cccc(CN3CCCC3)c2)c1 | 6.31 | 5010 | 794 | 3980 | 200 | 2.4 | 1.1 | 0.71 | – | – |
| COc1ncc(N2CCOCC2)cc1S(=O)(=O)Nc1cncc(-c2ccc(CN3CCN(C(C)C)CC3)cc2F)c1 [listing 1 of 2 here] | – | – | – | – | 3.16 | – | – | – | – | – |
| COc1ncc(N2CCOCC2)cc1S(=O)(=O)Nc1ccnc(-c2ccc(CN3CCN(C(C)C)CC3)c(F)c2F)c1 [listing 1 of 2 here] | – | – | – | 2000 | – | – | – | – | – | – |
| COc1ncc(N2CCOCC2)cc1S(=O)(=O)Nc1ccnc(-c2ccc(CN3CCN(C(C)(C)C)CC3)cc2)c1 [listing 1 of 2 here] | – | 1580 | 6310 | 3980 | – | – | – | – | – | – |
| COc1ncc(N2CCOCC2)cc1S(=O)(=O)Nc1cncc(-c2ccc(CN3CCN(C(C)C)CC3)cc2)c1 | 2.51 | 1260 | 2510 | 7940 | 20 | 2.3 | < 0.46 | 0.71 | 0.0794 | – |
| COc1ncc(C2=CCOCC2)cc1S(=O)(=O)Nc1cncc(-c2ccc(N3CCN(C(C)C)CC3)cc2)c1 | 3.16 | 316 | 316 | 7940 | 50.1 | 3.8 | – | – | – | – |
| COc1ncc(C2=CCOCC2)cc1S(=O)(=O)Nc1cncc(C2CC2CN(C)C)c1 (centres undefined) | 126 | 6310 | 1260 | 7940 | – | 1.2 | – | – | – | – |
| COc1ncc(C2=CCOCC2)cc1S(=O)(=O)Nc1cncc(C#CCN2C[C@@H](C)O[C@@H](C)C2)c1 | 3.98 | 6310 | 5010 | 5010 | – | 3.6 | 5.59 | 3.64 | – | – |
| COc1ncc(C2=CCOCC2)cc1S(=O)(=O)Nc1cncc(-c2ccc(CN3CCNCC3)cc2)c1 | 3.16 | 3160 | 794 | 7940 | 12.6 | 3.3 | 3.18 | 2.21 | 0.126 | – |
| COc1ncc(C2=CCOCC2)cc1S(=O)(=O)Nc1cncc(-c2ccc(CN3CCN(C(C)C)CC3)cc2)c1 | 0.316 | 398 | 794 | 2510 | 12.6 | 2.9 | 0.61 | 2.28 | 0.01 | – |
| COc1ncc(C2=CCOCC2)cc1S(=O)(=O)Nc1cncc(-c2ccc(CN(C)C)cc2)c1 | 7.94 | 5010 | 1000 | 10000 | 79.4 | 2 | 0.66 | < 0.4 | – | – |
| COc1ncc(C2=CCOCC2)cc1S(=O)(=O)Nc1cncc(-c2ccc(CN3C[C@@H](C)O[C@@H](C)C3)cc2)c1 | 0.398 | 1000 | 631 | 794 | 25.1 | 5.3 | 18.9 | 12.9 | 0.01 | – |
| COc1ncc(C2=CCOCC2)cc1S(=O)(=O)Nc1cncc(-c2cccc(CN3CCCCC3)c2)c1 | 5.01 | 5010 | 1260 | 6310 | 79.4 | 3.5 | 3.98 | 1.88 | – | – |
| COc1ncc(C2=CCOCC2)cc1S(=O)(=O)Nc1cncc(C2=CCN(C)CC2)c1 | 316 | 20000 | 5010 | 5010 | – | 1.5 | – | – | – | – |
| COc1ncc(N2CCOCC2)cc1S(=O)(=O)Nc1ccnc(-c2ccc(CN3C[C@@H](C)O[C@@H](C)C3)cc2F)c1 | 1 | 1260 | 1580 | 251 | 7.94 | 3.9 | 0.59 | 0.87 | 0.0316 | – |
| COc1ncc(N2CCOCC2)cc1S(=O)(=O)Nc1cncc(C#CCN2CCN(C(C)C)CC2)c1 | 31.6 | 20000 | 15800 | – | 158 | 1.6 | < 0.46 | < 0.4 | – | > 4.5 |
| COc1ncc(N2CCOCC2)cc1S(=O)(=O)Nc1ccnc(-c2ccc(CN3CCN(C(C)(C)C)CC3)cc2F)c1 | 0.794 | 794 | 3980 | 2000 | 2.51 | 1.9 | < 0.37 | < 0.31 | 0.0251 | – |
| COc1ncc(N2CCOCC2)cc1S(=O)(=O)Nc1cncc(-c2ccc(CN3CCN(C(C)C)CC3)cc2F)c1 [listing 2 of 2 here] | 1.26 | 501 | 3980 | 2510 | – | 2.6 | < 0.46 | 0.65 | – | – |
| COc1ncc(C2=CCOCC2)cc1S(=O)(=O)Nc1cncc(-c2ccc(CN3CCCCC3)s2)c1 | 2.51 | 1580 | 100 | 1580 | 31.6 | 4.7 | – | – | – | – |
| COc1ncc(N2CCOCC2)cc1S(=O)(=O)Nc1ccnc(-c2ccc(CN3CCN(C(C)C)CC3)c(F)c2F)c1 [listing 2 of 2 here] | 1.58 | 1260 | 5010 | – | 3.16 | 2.2 | < 0.46 | 0.47 | 0.0631 | – |
| COc1ncc(N2CCOCC2)cc1S(=O)(=O)Nc1cncc(-c2ccc(CN3CCCC3)cc2)c1 [listing 1 of 2 here] | – | – | – | 10000 | – | – | – | – | – | – |
| COc1ncc(N2CCOCC2)cc1S(=O)(=O)Nc1ccnc(-c2ccc(CN3CCC(C(C)(C)O)CC3)cc2F)c1 | 1.58 | 2510 | 2510 | 3160 | 10 | 2.1 | < 0.46 | < 0.4 | 0.0501 | – |
| COc1ncc(C2=CCOCC2)cc1S(=O)(=O)Nc1cncc(-c2ccc(CN3CCN(C)CC3)cc2)c1 | 3.16 | 251 | 501 | 3160 | 39.8 | 2.3 | 0.96 | 1.64 | – | – |
| COc1ncc(N2CCOCC2)cc1S(=O)(=O)Nc1ccnc(-c2ccc(CN3CCN(C(C)(C)C)CC3)cc2)c1 [listing 2 of 2 here] | 0.794 | – | – | – | 7.94 | 1.3 | < 0.46 | < 0.4 | 0.0251 | – |
| COc1ncc(C2=CCOCC2)cc1S(=O)(=O)Nc1cncc(-c2ccc(CN3CCCC3)cc2)c1 | 5.01 | 5010 | 631 | 10000 | 31.6 | 2.2 | 0.88 | 0.72 | – | – |
| COc1ncc(C2=CCOCC2)cc1S(=O)(=O)Nc1ccccc1 | 200 | 3980 | 2510 | 7940 | 3980 | – | – | – | – | – |
| COc1ncc(N2CCOCC2)cc1S(=O)(=O)Nc1cncc(-c2ccc(CN3CCCC3)cc2)c1 [listing 2 of 2 here] | 20 | 5010 | 2000 | – | 79.4 | 1.9 | < 0.46 | < 0.4 | – | – |
